Values joined by “and” are separate entries in the source; they are usually repeats but may differ in a detail not shown here. Identical values can stand only once.
Experiments:
neuron = experiment: quantification of 15R-LXA4, RvE1, RvD1 in primary cells (LC-MS/MS); assay type: cell-based, C57BL/6 mice; parameters: unit not given here; conditions: replicates
Procedure: Lipid mediators metabololipidomics were performed according to previously described procedures with minor modifications[4],[30]. To confirm the biosynthesis of lipid mediators by recombinant COX2 treated with N-AS or aspirin, 10 U of human recombinant COX2 (Cayman, 60122) was incubated in the presence of 500 μM aspirin (Sigma-Aldrich, A5376) or N-AS (Sigma-Aldrich, 01912) at 37 °C for 30 min. The enzyme was filtered with a Microcon column (Millipore) to remove unreacted aspirin or N-AS and was then resuspended in 0.1 M Tris-HCl (pH 8.0). Next, 500 μM phenol (Sigma-Aldrich) and 1 μM hematin-porcine (Sigma-Aldrich) were added immediately before incubation with 100 μM AA, EPA or DHA (Cayman) at 37 °C for 2 h, respectively. The mixtures were incubated with 30 U of human 5-LOX (Cayman, 60402) containing 2 mM CaCl2 (Sigma-Aldrich), 1 mM ATP (Amresco) and 5 μM 13-HpODE (Cayman) as activators. Also, to validate the importance of residue S565 for N-AS-acetylation of COX2 and production of SPMs, 10 U of the COX2 S565A mutant was used in the above-described method. In addition, to confirm SPM generation in neurons and microglia, these cells were treated with Aβ and sonicated in neuronal and glial culture medium. […] To evaluate the relationship of N-AS and SPM production in microglia, microglia were isolated from WT, APP/PS1, and APP/PS1 treated with N-AS mice at 9 months of age. The microglia were sonicated and resuspended in microglial culture medium. The supernatants were incubated with 100 μM AA, EPA, and DHA (Cayman) at 37 °C for 2 h. A 50 μl aliquot of the mixture from each cell lysate was added to a 250 μl aliquot of 1 ng ml^−1 of 15S-LXA4-d5 (internal standard, Cayman) methanol solution. After vortexing for 10 min and centrifuging at 15,974×g for 5 min, the supernatant was subjected to the analysis of the lipid mediators using an Agilent 6470 Triple Quad LC-MS/MS system (Agilent) coupled to an Agilent 1290 HPLC system. Chromatographic separation was achieved using a Synergi Polar RP (4 μm, 2.0 mm i.d. × 150 mm, Phenomenex). Analytes were eluted with a mobile phase consisting of water: formic acid (100:0.1 v/v) (phase A) and methanol: formic acid (100:0.1 v/v) (phase B) in gradient elution mode for 23 min a flow rate of 0.2 ml min^−1. The elution gradient was as follows: from 0 to 0.1 min the content of phase A was 37% and the content of phase A was decreased to 10% and maintained for 5.5 min. The content of phase A was increased back to 37% at 6.0 min and maintained for 23 min. Quantification was carried out using MRM in negative ionization mode and collision energy of 10–15 eV. The mass transition from Q1 to Q3 is shown in Supplementary Table 2. In this study, the peak areas for all components were automatically integrated using MassHunter B 06.00.
To confirm the generation and roles of N-AS in neurons, cells from E18 C57BL/6 mice were prepared as previously described. Cortices were dissected and then dissociated followed by incubation in papain (Worthington) at 37 °C for 15 min. Neurons were plated on poly-L-lysine-coated coverslips with neuronal culture medium, serum-free Neurobasal medium (Gibco) containing 2% B27 supplements (Gibco), 1 mM Glutamax supplement (Gibco), and 100 U ml^−1 streptomycin/ 100 U ml^−1 penicillin (Gibco) at 37 °C in a humidified atmosphere of 5% CO2. […] Primary astrocyte cultures were prepared from C57BL/6 mice as described previously. In brief, after removal of the meninges, postnatal day 7 (P7) mouse brain tissues were minced and incubated in a rocking water bath at 37 °C for 30 min in the presence of 0.25% trypsin-EDTA (Sigma-Aldrich). Enzyme-digested dissociated cells were triturated with astrocyte-specific medium (DMEM/F12 containing 10% FBS and 1% penicillin-streptomycin) and centrifuged at 155×g for 8 min. The pellet was resuspended in astrocyte-specific medium and passed through a 40-μm cell strainer. […]

COX2 WT = molecular target: T1, COX2 WT (Homo sapiens, UniProt P35354); experiment: in vitro [14C] acetylation assay of purified COX2; assay type: biochemical; conditions: purified COX2 + 14C-labelled acetyl donor, 2 h, 37 °C, scintillation counter, replicates, in cpm (unit assumed)
T1 construct: His (N); made in house
T1 sequence (P35354 18-604): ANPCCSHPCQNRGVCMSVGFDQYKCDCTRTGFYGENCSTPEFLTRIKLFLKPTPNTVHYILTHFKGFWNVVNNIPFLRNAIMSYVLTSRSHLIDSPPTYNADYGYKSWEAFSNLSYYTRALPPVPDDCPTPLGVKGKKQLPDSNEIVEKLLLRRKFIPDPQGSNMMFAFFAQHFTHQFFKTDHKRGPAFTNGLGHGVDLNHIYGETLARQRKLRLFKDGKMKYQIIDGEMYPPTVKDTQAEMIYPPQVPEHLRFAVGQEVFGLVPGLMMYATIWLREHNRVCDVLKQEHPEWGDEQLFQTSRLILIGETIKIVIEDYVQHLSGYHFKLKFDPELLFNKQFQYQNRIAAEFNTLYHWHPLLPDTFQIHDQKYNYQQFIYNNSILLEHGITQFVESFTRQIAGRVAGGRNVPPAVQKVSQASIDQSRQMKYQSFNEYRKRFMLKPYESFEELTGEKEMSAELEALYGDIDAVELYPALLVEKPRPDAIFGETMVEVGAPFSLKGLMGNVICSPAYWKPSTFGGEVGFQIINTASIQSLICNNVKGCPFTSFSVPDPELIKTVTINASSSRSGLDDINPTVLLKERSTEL

CC(=O)SCCNC(=O)CCNC(=O)[C@H](O)C(C)(C)COP(=O)(O)OP(=O)(O)OC[C@H]1O[C@@H](n2cnc3c(N)ncnc32)[C@H](O)[C@@H]1OP(=O)(O)O [Acetyl-CoA, acetyl-CoA]
15R-LxA4 (Fig 3i) (neuron; Ab + supplement): 0.02549 and 0.02793 and 0.0321 and 0.02233 and 0.02865 and 0.02722 | RvD1 (Fig 3i) (neuron; Ab + supplement): 0.01313 and 0.01214 and 0.01403 and 0.01264 and 0.01308 and 0.01333 | RvE1 (Fig 3i) (neuron; Ab + supplement): 0.01432 and 0.01422 and 0.01286 and 0.01427 and 0.01354 and 0.01357 | C14 radioactivity of COX2, acetylation assay (Fig 1b) (COX2 WT; listed as C14 Acetyl CoA): 4565 and 4620 and 4766 and 3817

CC(=O)Oc1ccccc1C(=O)O [Aspirin, acetylsalicylic acid, reference compound]
C14 radioactivity of COX2, acetylation assay (Fig 1b) (COX2 WT; listed as C14 Aspirin): 16445 and 14504 and 14566 and 16561 and 14595 and 14332 and 14859

CCCCCCCCCCCCC/C=C/[C@@H](O)[C@H](CO)NC(C)=O [N-AS, N-((2S,3R,E)-1,3-Dihydroxyoctadec-4-en-2-yl)acetamide]
15R-LxA4 (Fig 3i) (neuron; Ab + supplement): 3.35 and 3.4991 and 3.7074 and 3.111 and 3.589 and 3.409 | RvD1 (Fig 3i) (neuron; Ab + supplement): 0.555 and 0.7676 and 0.6961 and 0.6613 and 0.7318 and 0.6787 | RvE1 (Fig 3i) (neuron; Ab + supplement): 3.2 and 3.853 and 3.712 and 3.527 and 3.7827 and 3.619 | C14 radioactivity of COX2, acetylation assay (Fig 1b) (COX2 WT; listed as C14 N-AS): 347557 and 414691 and 285538 and 348458 and 418276 and 416508 and 283195

CCCCCCCCCCCCC/C=C/[C@@H](O)[C@@H](N)CO [Sph, sphingosine]
15R-LxA4 (Fig 3i) (neuron; Ab + supplement): 0.02593 and 0.02461 and 0.02134 and 0.02662 and 0.02525 and 0.02398 | RvD1 (Fig 3i) (neuron; Ab + supplement): 0.01101 and 0.01211 and 0.01321 and 0.01156 and 0.01266 and 0.01239 | RvE1 (Fig 3i) (neuron; Ab + supplement): 0.01121 and 0.01127 and 0.01125 (2×) and 0.01124 and 0.01126

Ab: Aβ 1–42 (Invitrogen, 03112) used to induce an AD environment in cells
15R-LxA4 (Fig 3i) (neuron; Ab, no supplement): 0.02346 and 0.02267 and 0.02051 and 0.02367 and 0.02325 and 0.02209 | RvD1 (Fig 3i) (neuron; Ab, no supplement): 0.01315 and 0.01104 and 0.01107 and 0.0121 and 0.01106 and 0.01158 | RvE1 (Fig 3i) (neuron; Ab, no supplement): 0.0152 and 0.01424 and 0.01723 and 0.01472 and 0.01573 and 0.01598

B1: Sphk1: purified sphingosine kinase1 enzyme (Cayman, 10348) supplemented to cell lysates (protein, UniProt Q9NYA1 1-384, looked up)
Sphingosine kinase 1: MDPAGGPRGVLPRPCRVLVLLNPRGGKGKALQLFRSHVQPLLAEAEISFTLMLTERRNHARELVRSEELGRWDALVVMSGDGLMHEVVNGLMERPDWETAIQKPLCSLPAGSGNALAASLNHYAGYEQVTNEDLLTNCTLLLCRRLLSPMNLLSLHTASGLRLFSVLSLAWGFIADVDLESEKYRRLGEMRFTLGTFLRLAALRTYRGRLAYLPVGRVGSKTPASPVVVQQGPVDAHLVPLEEPVPSHWTVVPDEDFVLVLALLHSHLGSEMFAAPMGRCAAGVMHLFYVRAGVSRAMLLRLFLAMEKGRHMEYECPYLVYVPVVAFRLEPKDGKGVFAVDGELMVSEAVQGQVHPNYFWMVSGCVEPPPSWKPQQMPPPEEPL
15R-LxA4 (Fig 3i) (neuron; Ab + supplement): 3.266 and 3.3679 and 3.485 and 3.078 and 3.454 and 3.282 | RvD1 (Fig 3i) (neuron; Ab + supplement): 0.5366 and 0.8616 and 0.7359 and 0.6991 and 0.7987 and 0.7175 | RvE1 (Fig 3i) (neuron; Ab + supplement): 3.815 and 3.7466 and 3.98 and 3.781 and 3.863 and 3.88

Reference: publication PMC7217877, “N-AS-triggered SPMs are direct regulators of microglia in a model of Alzheimer’s disease” (Nature Communications, 2020)
